Experimental data as given in patent publication US20080194522A1, “Development of Fluorogenic Substrates For Monoamine Oxidases (Mao-A and Mao-B)” (priority 2004, published 2008).
Entries after “also recorded” stand apart in the source; their conditions may differ. Marks after values point to notes of the source that are not given here.

Experiments:
[1] = Photophysical characterization (absorbance, extinction coefficient, emission, quantum yield); format: physicochemical; settings: for fluorescence, in words: aqueous / phosphate buffer; for ΦEtOH: EtOH; for ΦH2O: H2O
Experimental: Extinction coefficients were the average of three independent determinations of three different readings from the lowest energy transition at three concentrations. Quantum yields are the average of three determinations of both quantum yield standard 9,10-diphenylanthracene and the synthesized coumarines at 340 nm unless otherwise indicated.
All spectra were recorded in 100 mM sodium phosphate (pH 7.4) unless otherwise indicated. Recorded λmax is that of the longest wavelength transition. Extinction coefficients were reported as the average of at least three independent preparations of the probes. Fluorescence measurements were taken on a Jobin Yvon Fluorolog fluorescence spectrofluorometer (slits 3, HV 750) in 100 mM sodium phosphate pH 7.4 buffer unless otherwise indicated. Quantum yields were measured relative to 9,10 diphenylanthracene in EtOH.4 Reported quantum efficiencies are the average of at least three independent preparations of the probes.
The extinction coefficient ε relates the absorbance of a compound to its concentration as expressed in Beer's law (A=εbc where A is absorbance, b is pathlength, and c is concentration). Extinction coefficients were the average of three independent determinations of three different readings of absorbance from the lowest energy transition at three concentrations. The quantum yield of fluorescence is the fraction of absorbed photons that lead to fluorescence; the number of photons fluoresced divided by the number of photons absorbed. To obtain the quantum yields of the synthesized coumarines their efficiency was compared to standard 9,10-diphenylanthracene at 340 nm in three different determinations. The effect of different solvents on the fluorescence of the compounds was also tested. The compounds were dissolved in methanol, chloroform and toluene and their emissions spectrum was taken.

[2] = Chemical stability; settings: in words
[3] = Solubility in aqueous solution; format: physicochemical; settings: in words
[4] = Table 3 hydroxyl-amine probes, in water
[5] = Table 4, in water, relative to 9,10-diphenyl anthracene (excited at 340 nm)
[6] = Table 4 indoles, in water, first λmax column
[7] = Table 4 indoles, in water, second λmax
[8] = Table 3, in water, relative to 9,10-diphenyl anthracene (excited at 365 nm)
[9] = Table 4, in water, relative to coumarin 6 (excited at 420 nm)
[10] = Table 5, 100 mM sodium phosphate pH 7.4
[11] = Table 5, 100 mM sodium phosphate pH 7.4, longest wavelength transition
[12] = Table 5, relative to 9,10-diphenyl anthracene (excited at 365 nm)
[13] = Table 5, relative to 9,10-diphenyl anthracene (excited at 340 nm)
[14] = Table 4, in water, relative to 9,10-diphenyl anthracene (excited at 365 nm)

Compound: Nc1cc2ccc(=O)oc2cc1CCO [VIII]
- λmax (nm) [1, 4]: 354 nm

Compound: NCCc1ccc2oc(=O)ccc2c1N [V]
- ε (M^−1cm^−1) ([1]; Table 2 diamines, in water): 6,000 ± 100 M^−1cm^−1
- λmax (nm) ([1]; Table 2 diamines, in water): 299 nm

Compound: O=c1ccc2cc3[nH]ccc3cc2o1 [XX]
- Φ [1, 5]: 0.0082 ± 0.0004^a
- ε (M^−1cm^−1) ([1]; Table 4 indoles, in water): 17,000 ± 2,000 M^−1cm^−1
- λmax (nm) [1, 6]: 335 nm
- λmax (nm) [1, 7]: 524 nm

Compound: Nc1c(CCO)ccc2oc(=O)ccc12 [Probe 81, 5-Amino-6-(2-hydroxy-ethyl)-chromen-2-one]
- fluorescence, in words [1]: very weakly fluorescent; also recorded: only weak fluorescence

Compound: CC12CC(=O)Oc3ccc(N)c(c31)CCN2 (centres unmarked) [Probe 125, 7-Amino-3a-methyl-3a,4,5,6-tetrahydro-3H-1-oxa-4-aza-phenalen-2-one]
- fluorescence, in words [1]: non-fluorescent

Compound: CCN(CC)c1ccc2c(C)c(-c3ccc(N)c(CCO)c3)c(=O)oc2c1 [VI]
- Φ [1, 8]: 0.014
- ε (M^−1cm^−1) [1, 4]: 15,000 ± 1,000 M^−1cm^−1
- λcm (nm) [1, 4]: 499 nm
- λmax (nm) [1, 4]: 394 nm

Compound: O=c1ccc2c(ccc3[nH]ccc32)o1 [XIX]
- Φ [1, 9]: 0.05 ± 0.02^c
- ε (M^−1cm^−1) ([1]; Table 4 indoles, in water): 9,400 ± 900 M^−1cm^−1
- λmax (nm) [1, 6]: 355 nm
- λmax (nm) [1, 7]: 517 nm

Compound: 7-(4-Amino-phenyl)-4-methyl-chromen-2-one [Probe 1]
- ε (M^−1cm^−1) [1, 10]: 13,000 ± 1,000 M^−1cm^−1
- λcm (nm) [1, 10]: 484 nm
- λmax (nm) [1, 11]: 390 nm
- ΦEtOH [1, 12]: 0.0287 ± 0.0006^b
- ΦH2O [1, 12]: 0.00112 ± 0.00008^b

Compound: [4-(4-Methyl-2-oxo-2H-chromen-7-yl)-phenyl]-carbamic acid tert-butyl ester [Probe 2]
- ε (M^−1cm^−1) [1, 10]: 17,000 ± 1,000 M^−1cm^−1
- λcm (nm) [1, 10]: 477 nm
- λmax (nm) [1, 11]: 401 nm
- ΦEtOH [1, 12]: 0.59 ± 0.09^b
- ΦH2O [1, 12]: 0.08 ± 0.01^b

Compound: Cc1c(-c2ccc3[nH]ccc3c2)c(=O)oc2c3c4c(cc12)CCCN4CCC3 [Probe 24, 9-(1H-Indol-5-yl)-8-methyl-2,3,5,6-tetrahydro-1H, 4H-11-oxa-3a-aza-benzo[de]anthracen-10-one]
- emission wavelength [1]: 495 nm

Compound: Nc1cc2ccc(=O)oc2cc1CCO [Probe 58, 6-Amino-7-(2-hydroxy-ethyl)-chromen-2-one]
- fluorescence, in words [1]: basically non-fluorescent; also recorded: very weakly fluorescent

Compound: CCN(CC)c1ccc2cc(-c3ccc4[nH]ccc4c3)c(=O)oc2c1 [XII]
- Φ [1, 9]: 0.08 ± 0.02^c
- ε (M^−1cm^−1) ([1]; Table 4 indoles, in water): 17,000 ± 1,000 M^−1cm^−1
- λmax (nm) [1, 6]: 401 nm
- λmax (nm) [1, 7]: 477 nm

Compound: 7-[4-Amino-3-(2-hydroxy-ethyl)-phenyl]-4-methyl-chromen-2-one [Probe 3]
- λcm (nm) [1, 10]: 492 nm
- λmax (nm) [1, 11]: 350 nm
- ΦH2O [1, 13]: 0.010 ± 0.003^a

Compound: NCCc1cc2oc(=O)ccc2cc1N [Probe 116, 6-Amino-7-(2-amino-ethyl)-chromen-2-one]
- fluorescence, in words [1]: very weakly fluorescent
- chemical stability [2]: perfectly stable

Compound: Cc1cc(=O)oc2ccc3cc[nH]c3c12 [Probe 55, 9-Methyl-1H-pyrano[2,3-g]indol-7-one]
- fluorescence, in words [1]: quite fluorescent

Compound: Cc1cc(=O)oc2ccc3[nH]ccc3c12 [XVIII]
- Φ [1, 5]: 0.18 ± 0.05^a
- ε (M^−1cm^−1) ([1]; Table 4 indoles, in water): 11,600 ± 800 M^−1cm^−1
- λmax (nm) [1, 6]: 349 nm
- λmax (nm) [1, 7]: 492 nm

Compound: Cc1cc(=O)oc2ccc3[nH]ccc3c12 [Probe 52, 9-Methyl-3H-pyrano[3,2-e]indol-7-one]
- fluorescence, in words [1]: quite fluorescent

Compound: Cc1cc(=O)oc2ccc(N)c(CCN)c12 [Probe 115, 6-Amino-5-(2-amino-ethyl)-4-methyl-chromen-2-one]
- chemical stability [2]: stable when protonated; also recorded: very unstable once deprotonated, or even under neutral condition

Compound: 7-(1H-Indol-5-yl)-4-methyl-chromen-2-one [Probe 4]
- ε (M^−1cm^−1) [1, 10]: 11,600 ± 800 M^−1cm^−1
- λmax (nm) [1, 11]: 349 nm
- ΦEtOH [1, 13]: 0.36 ± 0.07^a
- ΦH2O [1, 13]: 0.13 ± 0.02^a

Compound: O=c1oc2c3c4c(cc2c(C(F)(F)F)c1-c1ccc2[nH]ccc2c1)CCCN4CCC3 [Probe 25, 9-(1H-Indol-5-yl)-8-trifluoromethyl-2,3,5,6-tetrahydro-1H, 4H-11-oxa-3a-aza-benzo[de]anthracen-10-one]
- fluorescence quantum yield, in words [1]: rather low quantum yield
- fluorescence, in words [1]: distinct red-shift emission

Compound: Cc1cc(=O)oc2ccc3cc[nH]c3c12 [XVII]
- Φ [1, 5]: 0.0531 ± 0.0001^a
- ε (M^−1cm^−1) ([1]; Table 4 indoles, in water): 14,000 ± 3,000 M^−1cm^−1
- λmax (nm) [1, 6]: 330 nm
- λmax (nm) [1, 7]: 488 nm

Compound: Cc1cc(=O)oc2ccc(N)c(CCO)c12 [Probe 57, 6-Amino-5-(2-hydroxy-ethyl)-4-methyl-chromen-2-one]
- fluorescence, in words [1]: essentially non-fluorescent; also recorded: very weakly fluorescent
- chemical stability [2]: chemically and photo-physically stable
- solubility in aqueous solution [3]: very soluble

Compound: O=c1oc2c3c4c(cc2cc1-c1ccc2[nH]ccc2c1)CCCN4CCC3 [XIV]
- Φ [1, 14]: 0.050 ± 0.005^b
- λmax (nm) [1, 6]: 388 nm
- λmax (nm) [1, 7]: 501 nm

Compound: Nc1ccc2oc(=O)ccc2c1CCO [IX]
- Φ [1, 8]: 0.0017
- ε (M^−1cm^−1) [1, 4]: 3,400 ± 500 M^−1cm^−1
- λmax (nm) [1, 4]: 357 nm

Compound: Cc1cc(=O)oc2cc(-c3ccc4[nH]ccc4c3)ccc12 [XI]
- Φ [1, 5]: 0.00329 ± 0.00008^a
- λmax (nm) [1, 6]: 339 nm
- λmax (nm) [1, 7]: 445 nm

Compound: Cc1c(-c2ccc(N)c(CCO)c2)c(=O)oc2c3c4c(cc12)CCCN4CCC3 [VII]
- Φ [1, 8]: 0.0040
- ε (M^−1cm^−1) [1, 4]: 21,000 ± 2,000 M^−1cm^−1
- λcm (nm) [1, 4]: 499 nm
- λmax (nm) [1, 4]: 391 nm

Compound: CCN(CC)c1ccc2c(C)c(-c3ccc(N)c(CCN)c3)c(=O)oc2c1 [Probe 114, 3-[4-Amino-3-(2-amino-ethyl)-phenyl]-7-diethylamino-4-methyl-chromen-2-one]
- chemical stability [2]: desired chemical stability
- solubility in aqueous solution [3]: water solubility

Compound: CCN(CC)c1ccc2c(C)c(-c3ccc(N)c(CCO)c3)c(=O)oc2c1 [Probe 16, 3-[4-Amino-3-(2-hydroxy-ethyl)-phenyl]-7-diethylamino-4-methyl-chromen-2-one]
- fluorescence, in words [1]: much less fluorescent than Probe 17
- chemical stability [2]: chemically and photo-physically stable
- solubility in aqueous solution [3]: reasonably soluble

Compound: Cc1cc(=O)oc2ccc(N)c(CCN)c12 [IV]
- Φ ([1]; Table 2, in water, relative to 9,10-diphenyl anthracene (excited at 340 nm)): 0.010

Compound: Nc1c(CCO)ccc2oc(=O)ccc12 [X]
- ε (M^−1cm^−1) [1, 4]: 13,000 ± 3,000 M^−1cm^−1
- λmax (nm) [1, 4]: 298 nm

Compound: O=c1oc2c3c4c(cc2c(C(F)(F)F)c1-c1ccc2[nH]ccc2c1)CCCN4CCC3 [XV]
- λmax (nm) [1, 6]: 439 nm
- λmax (nm) [1, 7]: 557 nm

Compound: Cc1cc(=O)oc2c1ccc1[nH]ccc12 [Probe 36, 4-Methyl-7H-pyrano[2,3-e]indol-2-one]
- fluorescence, in words [1]: very weak fluorescence emission intensity; also recorded: very weakly fluorescent

Compound: CCN(CC)c1ccc2c(C)c(-c3ccc4cc[nH]c4c3)c(=O)oc2c1 [XIII]
- Φ [1, 14]: 0.0103 ± 0.0003^b
- ε (M^−1cm^−1) ([1]; Table 4 indoles, in water): 20,000 ± 3,000 M^−1cm^−1
- λmax (nm) [1, 6]: 399 nm
- λmax (nm) [1, 7]: 484 nm

Compound: CCN(CC)c1ccc2c(C)c(-c3ccc(N)c(CCN)c3)c(=O)oc2c1 [I]
- ε (M^−1cm^−1) ([1]; Table 2 diamines, in water): 13,000 ± 1,000 M^−1cm^−1
- λcm (nm) ([1]; Table 2 diamines, in water): 484 nm
- λmax (nm) ([1]; Table 2 diamines, in water): 390 nm
